Assay results from patent publication US6476037B1, “L-arginine and phosphodiesterase (PDE) inhibitor synergism” (The Regents of the University of California, priority 2000, dated 2002).
Read-outs that look alike come from different tables or passages of the source.

Assays:
[1] = L-arginine pharmacokinetic parameters from preliminary clinical and animal data; assay type: in vivo
Description: Computer simulation of the predicted L-arginine levels from the high dose (1 mcg/kg/min) yield levels of 420 mmol/L. (T1/2=10 minutes, Volume distribution=0.36 L/kg: obtained from our preliminary clinical and animal data). Computer simulations of the low dose (0.5 mcg/kg/min) yield levels of 260 mmol/L. These doses are in the range to improve endothelial function and prevent vasospasm but will not cause significant vasodilation.

[2] = test system: Systemic and Coronary Vasculature of the Pig; test: Hemodynamic effects in chronically instrumented, anesthetized swine; assay type: in vivo
Description: Chronically instrumented female swine (70 kg, n=10) (ascending aortic and left anterior descending (LAD) coronary artery transit time flow probes, carotid and internal jugular pressures) were administered five doses of 1-arginine in five-minute intervals. After a period of recovery, four doses of nitroglycerin (1, 2, 3, 4 μg/kg/min) were infused. Sildenafil (100 mg IV) was administered and the 1-arginine and nitroglycerin administrations repeated.
After approval by the Institutional Animal Care and Use Committee, 70 kg female domestic swine (70.5±2.6 kg) were sedated with ketamine (25 mg/kg IM). Mask induction with isoflurane was followed by intubation with an endotracheal tube (6.0 ID 45 cm long). An angiocathether (20 gauge) was placed in an ear vein for IV fluid administration. Prophylactic antibiotics (cefazolin 1 gram IV prior to incision followed by cephalexin 500 mg PO BID) were given. The animal was ventilated with 100% oxygen and isoflurane to maintain anesthesia. A left thoracotomy (T4-5) was performed under sterile conditions. Transonics® (Ithaca, N.Y.) transit time flow probes were placed on the ascending aorta (model 28A) and the proximal left anterior descending coronary artery (3 mm, model 3S). The flow probe cables were tunneled to the animal's back. The thoracotomy was closed and air evacuated with a chest tube. The animals were given ketorolac (30 mg IV) followed by buprenorphine (0.3 to 0.6 mg IM Q8 hours for 5 days) for postoperative pain. The animals were allowed to recover for a minimum of two days before experimentation.
Previously instrumented swine were sedated with ketamine (25 mg/kg IM) and mask-induced with isoflurane. An angiocatheter (20 gauge) was placed in an ear vein for IV fluid administration. Animals were intubated (6.0 ID 45 cm long tube) and ventilated with 100% oxygen and isoflurane. Prophylactic antibiotics were given (cefazolin 1 gm IV). The animal's neck was then opened using sterile technique. Angiocatheters (16 gauge) were placed in the left and right internal jugular veins for central venous pressure monitoring and for drug and fluid infusions. An angiocatheter (20 gauge) was placed in the common carotid artery for blood sampling and pressure measurement. Arterial and central venous pressures were measured with disposable pressure transducers (Abbott Critical Care Systems Transpac® IV, North Chicago, Ill.) and the Transonics® Transit Time Flow meter (Model 206 with (-R) pRessure Option, Ithaca, N.Y.). ECG was monitored (Electronics for Medicine Monitor Model OM). The neck was closed. A supra-pubic bladder catheter was placed using sterile technique for urinary drainage. Data was recorded at 100 Hz using WinDaq data acquisition software (Transonics Systems, Ithaca, N.Y.). The pressure transducers were calibrated using a mercury manometer. Flow probes were calibrated prior to use.
Fentanyl (2 mg), diazepam (20 mg), and pancuronium (10 mg) were administered as a bolus. Isoflurane was simultaneously discontinued.

[3] = L-arginine levels after oral or intravenous L-arginine supplementation; assay type: in vivo; conditions: preliminary trial, bolus 30 grams over 15 minutes; from 81±8
Description: With respect to the coronary disease applications, we note that L-arginine levels without supplementation are about 116±14 mmol/L and oral administration elevates the levels to about 224±26 mmol/L with improvement in vasomotor function. […] Intravenous infusions (10 mg/kg/min) raised L-arginine levels from about 102±5 to about 8172±122 mmol/L and caused vasodilation. In our preliminary trial a bolus of L-arginine (30 grams over 15 minutes) elevated levels (81±8 to 6900±600 μmol). In preferred embodiments, there were two fundamentally different ranges of L-Arginine levels achieved. Levels that were 1.5 to 2 times baseline and levels that were 50 to 100 times baseline.

[4] = cited from earlier work
[5] = Serum L-arginine and L-citrulline concentrations after IV L-arginine boluses; assay type: in vivo, swine
Description: 2. L-Arginine Administration: A bolus dose of 1-arginine (60 cc of 10% 1-arginine (6 grams)) was administered intravenously. Five minutes later a blood sample was taken. The dose was then repeated. This procedure was repeated a total of five times (total of 300 cc of 10% 1-arginine (30 grams) administered). Thirty minutes were allowed to elapse and then a final blood sample collected.
Blood samples were collected in serum separator tubes and immediately placed on ice. Tubes were centrifuged for 20 minutes and the serum removed and stored in cryovials at −80° C. L-arginine and 1-citrulline levels were quantified by the Protein Structure Lab at the University of California, Davis (Davis, Calif.) with an ion-exchange chromatographer (Beckman 6300 aminoacid analyzer, Fullerton, Calif.). Serum osmolality was measured using an osmometer (Advanced Instruments, Needleham Heights, Mass.) by the Veternary Medical Teaching Hospital Diagnostic Laboratories (Davis, Calif.).

[6] = l-arginine alone, five 6 gram IV boluses at 5 min intervals, mean±SE
[7] = first administration of sildenafil, 100 mg IV bolus, mean±SE
[8] = first dose of sildenafil, 100 mg IV bolus

Structure (SMILES): Cl.N=C(N)NCCC[C@H](N)C(=O)O [L-Arginine, 1-arginine hydrochloride]
- T1/2 [1]: 10 min
- Volume distribution [1]: 0.36 L/kg
- CO, Max Effect [2, 6]: 8.9 ± 0.5 L/min
- CVP, Max Effect [2, 6]: 12.0 ± 1.0 mmHg
- CVR, Max Effect [2, 6]: 89.1 ± 4.7 dynes*sec*cm^−5*10^3
- HR, Max Effect [2, 6]: 106.5 ± 6.7 beats/min
- MAP, Max Effect [2, 6]: 107.4 ± 6.4 mmHg
- SVR, Max Effect [2, 6]: 825.0 ± 39.3 dynes*sec*cm^−5
- LAD Flow, Max Effect ([2]; l-arginine alone, five 6 gram IV boluses at 5 min intervals, mean±SE, hydrochloride): 66.7 ± 6.6 mL/min
- LAD Flow, Max Effect ([2]; l-arginine alone, five 6 gram IV boluses at 5 min intervals, mean±SE, listed as L-arginine, hydrochloride): 66.7 ± 6.6 mL/min
- change in coronary blood flow relative to the change expected for a similar change in osmolality ([2]; l-arginine fifth dose compared with mannitol): 2.6 times
- L-arginine levels [3]: 6900 ± 600 µmol
- L-arginine levels ([4]; intravenous infusions 10 mg/kg/min, from about 102±5): about 8172±122 mmol/L
- L-arginine levels ([4]; oral administration, without supplementation about 116±14): about 224±26 mmol/L
- Serum [L-Arginine] ([5]; 5 min after Dose #1 (6 grams IV), no sildenafil): 1987.0 ± 116.8 µM
- Serum [L-Arginine] ([5]; 5 min after Dose #2 (6 grams IV each), no sildenafil): 3139.2 ± 129.6 µM
- Serum [L-Arginine] ([5]; 5 min after Dose #3 (6 grams IV each), no sildenafil): 4143.3 ± 205.4 µM
- Serum [L-Arginine] ([5]; 5 min after Dose #4 (6 grams IV each), no sildenafil): 5232.7 ± 364.6 µM
- Serum [L-Arginine] ([5]; 5 min after Dose #5 (total 30 grams IV), no sildenafil): 5922.1 ± 307.4 µM
- Serum [L-Citrulline] ([5]; 5 min after L-arginine Dose #1 (6 grams IV), no sildenafil): 54.7 ± 5.2 µM
- Serum [L-Citrulline] ([5]; 5 min after L-arginine Dose #2, no sildenafil): 53.2 ± 4.2 µM
- Serum [L-Citrulline] ([5]; 5 min after L-arginine Dose #3, no sildenafil): 54.9 ± 4.4 µM
- Serum [L-Citrulline] ([5]; 5 min after L-arginine Dose #4, no sildenafil, hydrochloride): 61.5 ± 6.7 µM
- Serum [L-Citrulline] ([5]; 5 min after L-arginine Dose #4, no sildenafil, listed as 1-arginine, hydrochloride): 61.5 ± 6.7 µM
- Serum [L-Citrulline] ([5]; 5 min after L-arginine Dose #5, no sildenafil): 60.2 ± 5.9 µM
- Serum [L-Citrulline] ([5]; 30 min Post last L-arginine dose, no sildenafil): 60.5 ± 7.1 µM
- Serum [L-Arginine] ([5]; 30 min Post last dose, no sildenafil): 2592.7 ± 268.9 µM

Structure (SMILES): O=[N+]([O-])OCC(CO[N+](=O)[O-])O[N+](=O)[O-] [Nitroglycerin, nitroglycerin]
- CO, Max Effect ([2]; in vivo, iv): 9.1 ± 0.7 L/min
- CVP, Max Effect ([2]; in vivo, iv): 9.9 ± 1.0 mmHg
- CVR, Max Effect ([2]; in vivo, iv): 98.9 ± 9.8 dynes*sec*cm^−5*10^3
- HR, Max Effect ([2]; in vivo, iv): 128.3 ± 9.0 beats/min
- LAD Flow, Max Effect ([2]; in vivo, iv): 65.4 ± 6.7 mL/min
- MAP, Max Effect ([2]; in vivo, iv): 103.9 ± 6.6 mmHg
- SVR, Max Effect ([2]; in vivo, iv): 882.8 ± 98.6 dynes*sec*cm^−5

Structure (SMILES): CCCc1nn(C)c2c(=O)[nH]c(-c3cc(S(=O)(=O)N4CCN(C)CC4)ccc3OCC)nc12 [sildenafil]
- LAD flow, peak [2, 7]: 87.6 ± 7.3 mL/min
- Mean arterial pressure, min. [2, 7]: 78.7±7.0 mmHg
- cardiac output, peak [2, 7]: 10.5 ± 0.8 L/min
- central venous pressure, min. [2, 7]: 9.1±1.1 mmHg
- coronary vascular resistance, min. [2, 7]: 54.7±5.3 dynes*sec*cm^−5*10^3
- heart rate, peak [2, 7]: 165.0±8.9 beats/min
- systemic vascular resistance, min. [2, 7]: 612.2±61.1 dynes*sec*cm^−5
- duration of effects on MAP, CVP, CVR, and SVR [2, 8]: persisted through the fifteen-minute observation period
- duration of increase in cardiac output (disappeared after) [2, 8]: three
- duration of increase in heart rate [2, 8]: about five
- increase in cardiac output [2, 8]: 1.2 L/min
- effect of sildenafil on the l-arginine-induced change in LAD flow ([2]; sildenafil 100 mg IV before l-arginine boluses, P<0.05): potentiated the effects of 1-arginine on LAD flow
- time of peak hemodynamic effect following injection ([2]; sildenafil i.v. bolus): approximately two
